Data from patent publication US20100190846A1, “MICROBICIDAL AGENT AND MICROBICIDAL COMPOSITION” (priority 2006, published 2010).

Key:
Assay in all cases: Agar dilution method microbicidal test
Type in all cases: cell-based
[1] = system: Bacillus subtilis ATCC6633; details: Bacillus subtilis ATCC 6633; for Growth on agar plate: key: +: grew; −: did not grow
Procedure, shortened: (§1)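 Agar dilution in BHI agar at final 4.0, 3.0, 2.0, 1.0, 0.5 and 0.25 mg/mL (DMSO stocks; catechin in sterile water). Bacteria grown in MHB, diluted to 10^6/mL, spotted onto plates, incubated 18 hours at 37° C. MIC is the lowest concentration inhibiting growth.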

Enterococcus faecalis = system: Enterococcus faecalis; note: key: +: grew; −: did not grow
Procedure, shortened: as §1

Escherichia coli = system: Escherichia coli; for Growth on agar plate: key: +: grew; −: did not grow
Procedure, shortened: as §1

Pseudomonas aeruginosa = system: Pseudomonas aeruginosa; for Growth on agar plate: key: +: grew; −: did not grow
Procedure, shortened: as §1

Staphylococcus aureus = system: Staphylococcus aureus; for Growth on agar plate: key: +: grew; −: did not grow
Procedure, shortened: (§2)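 Serial twofold DMSO dilutions (water for catechin) give BHI agar plates with 0.25–4.0 mg/mL final compound, inoculated with 10 μL of 10^6/mL bacterial suspension. After 18 hours at 37° C, MIC is taken as the lowest inhibitory concentration.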

Streptococcus pneumoniae = system: Streptococcus pneumoniae; for Growth on agar plate: key: +: grew; −: did not grow
Procedure, shortened: as §2

Streptococcus pyogenes = system: Streptococcus pyogenes; for Growth on agar plate: key: +: grew; −: did not grow
Procedure, shortened: as §2

catechin [reference compound]
Growth on agar plate ([1]; 0.25 mg/mL): +
Growth on agar plate ([1]; 0.5 mg/mL): +
Growth on agar plate ([1]; 1.0 mg/mL): +
Growth on agar plate ([1]; 2.0 mg/mL): +
Growth on agar plate ([1]; 3.0 mg/mL): −
Growth on agar plate ([1]; 4.0 mg/mL): −
MIC ([1]; BHI agar, 37° C., 18 hours): 3.0 mg/mL
Growth on agar plate (Enterococcus faecalis; 0.25 mg/mL): +
Growth on agar plate (Enterococcus faecalis; 0.5 mg/mL): +
Growth on agar plate (Enterococcus faecalis; 1.0 mg/mL): +
Growth on agar plate (Enterococcus faecalis; 2.0 mg/mL): +
Growth on agar plate (Enterococcus faecalis; 3.0 mg/mL): +
Growth on agar plate (Enterococcus faecalis; 4.0 mg/mL): +
Growth on agar plate (Escherichia coli; 0.25 mg/mL): +
Growth on agar plate (Escherichia coli; 0.5 mg/mL): +
Growth on agar plate (Escherichia coli; 1.0 mg/mL): +
Growth on agar plate (Escherichia coli; 2.0 mg/mL): +
Growth on agar plate (Escherichia coli; 3.0 mg/mL): +
Growth on agar plate (Escherichia coli; 4.0 mg/mL): +
MIC (Escherichia coli; BHI agar, 37° C., 18 hours): 2.0 mg/mL
Growth on agar plate (Pseudomonas aeruginosa; 0.25 mg/mL): +
Growth on agar plate (Pseudomonas aeruginosa; 0.5 mg/mL): +
Growth on agar plate (Pseudomonas aeruginosa; 1.0 mg/mL): −
Growth on agar plate (Pseudomonas aeruginosa; 2.0 mg/mL): −
Growth on agar plate (Pseudomonas aeruginosa; 3.0 mg/mL): −
Growth on agar plate (Pseudomonas aeruginosa; 4.0 mg/mL): −
MIC (Pseudomonas aeruginosa; BHI agar, 37° C., 18 hours): 1.0 mg/mL
Growth on agar plate (Staphylococcus aureus; 0.25 mg/mL): +
Growth on agar plate (Staphylococcus aureus; 0.5 mg/mL): +
Growth on agar plate (Staphylococcus aureus; 1.0 mg/mL): −
Growth on agar plate (Staphylococcus aureus; 2.0 mg/mL): −
Growth on agar plate (Staphylococcus aureus; 3.0 mg/mL): −
Growth on agar plate (Staphylococcus aureus; 4.0 mg/mL): −
MIC (Staphylococcus aureus; BHI agar, 37° C., 18 hours): 1.0 mg/mL
Growth on agar plate (Streptococcus pneumoniae; 0.25 mg/mL): +
Growth on agar plate (Streptococcus pneumoniae; 0.5 mg/mL): +
Growth on agar plate (Streptococcus pneumoniae; 1.0 mg/mL): −
Growth on agar plate (Streptococcus pneumoniae; 2.0 mg/mL): −
Growth on agar plate (Streptococcus pneumoniae; 3.0 mg/mL): −
Growth on agar plate (Streptococcus pneumoniae; 4.0 mg/mL): −
MIC (Streptococcus pneumoniae; BHI agar, 37° C., 18 hours): 1.0 mg/mL
Growth on agar plate (Streptococcus pyogenes; 0.25 mg/mL): +
Growth on agar plate (Streptococcus pyogenes; 0.5 mg/mL): +
Growth on agar plate (Streptococcus pyogenes; 1.0 mg/mL): +
Growth on agar plate (Streptococcus pyogenes; 2.0 mg/mL): −
Growth on agar plate (Streptococcus pyogenes; 3.0 mg/mL): −
Growth on agar plate (Streptococcus pyogenes; 4.0 mg/mL): −
MIC (Streptococcus pyogenes; BHI agar, 37° C., 18 hours): 2.0 mg/mL
